# Measured values taken from paper PMC13187428, “Mechanistic basis for selective Csm6-2 activation by cyclic penta-adenylate in a type III CRISPR-Cas system” (The EMBO Journal, 2026).
# Read-outs that look alike come from different tables or passages of the source.
# What was measured:
# Csm6-2 (ApCsm6-2) = target: T1, Csm6-2 (ApCsm6-2) (Actinomyces procaprae, UniProt Z9IBH4OPS2); test: SPR (Biacore 8K, CM5 chip, amine-coupled Csm6-2); assay type: binding
# T1 construct: full length, tandem CARF1-HEPN1 (1-400) and CARF2-HEPN2 (401-797); N-terminal His6 tag, pET-28a, E. coli Rosetta (DE3), codon-optimised; homotetramer
# T1 sequence (Z9IBH4OPS2 1-797): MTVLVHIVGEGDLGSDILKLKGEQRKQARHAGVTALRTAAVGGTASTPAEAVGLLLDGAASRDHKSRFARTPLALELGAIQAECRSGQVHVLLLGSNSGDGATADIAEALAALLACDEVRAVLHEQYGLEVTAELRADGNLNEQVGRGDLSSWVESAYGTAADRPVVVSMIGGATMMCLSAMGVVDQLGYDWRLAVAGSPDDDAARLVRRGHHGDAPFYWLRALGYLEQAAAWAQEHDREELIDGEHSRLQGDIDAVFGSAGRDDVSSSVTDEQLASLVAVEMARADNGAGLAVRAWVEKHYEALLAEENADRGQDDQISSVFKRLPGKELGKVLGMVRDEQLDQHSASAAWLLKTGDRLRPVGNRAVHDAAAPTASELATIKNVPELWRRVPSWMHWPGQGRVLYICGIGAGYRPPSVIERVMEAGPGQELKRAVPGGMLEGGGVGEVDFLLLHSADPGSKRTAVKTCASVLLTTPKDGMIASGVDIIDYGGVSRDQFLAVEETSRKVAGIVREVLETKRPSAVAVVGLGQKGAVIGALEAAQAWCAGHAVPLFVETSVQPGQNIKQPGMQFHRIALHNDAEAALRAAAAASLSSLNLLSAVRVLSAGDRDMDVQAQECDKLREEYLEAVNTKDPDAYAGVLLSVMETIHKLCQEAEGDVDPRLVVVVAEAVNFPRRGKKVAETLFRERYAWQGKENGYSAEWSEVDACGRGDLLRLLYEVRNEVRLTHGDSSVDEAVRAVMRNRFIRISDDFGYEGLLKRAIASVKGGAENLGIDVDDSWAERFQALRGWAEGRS
# [1] = target: Csm6-2 L473E/L474E mutant (Actinomyces procaprae); test: SEC; size-exclusion chromatography profiles of WT and L473E/L474E mutant proteins
molecule,measurement,setting,value
Nc1ncnc2c1ncn2[C@@H]1O[C@@H]2COP(=O)(O)O[C@H]3[C@@H](O)[C@H](n4cnc5c(N)ncnc54)O[C@@H]3COP(=O)(O)O[C@H]3[C@@H](O)[C@H](n4cnc5c(N)ncnc54)O[C@@H]3COP(=O)(O)O[C@H]3[C@@H](O)[C@H](n4cnc5c(N)ncnc54)O[C@@H]3COP(=O)(O)O[C@H]3[C@@H](O)[C@H](n4cnc5c(N)ncnc54)O[C@@H]3COP(=O)(O)O[C@H]2[C@H]1O [cA5],Kd,"Csm6-2 (ApCsm6-2); PBST (0.5% Tween-20) running buffer, allosteric activator, CARF domain pocket",1.41 nM
Csm6-2 L473E/L474E mutant (enzyme),stoichiometry N,[1],2
Nc1ncnc2c1ncn2[C@@H]1O[C@@H]2COP(=O)(O)O[C@H]3[C@@H](O)[C@H](n4cnc5c(N)ncnc54)O[C@@H]3COP(=O)(O)O[C@H]3[C@@H](O)[C@H](n4cnc5c(N)ncnc54)O[C@@H]3COP(=O)(O)O[C@H]3[C@@H](O)[C@H](n4cnc5c(N)ncnc54)O[C@@H]3COP(=O)(O)O[C@H]3[C@@H](O)[C@H](n4cnc5c(N)ncnc54)O[C@@H]3COP(=O)(O)O[C@H]3[C@@H](O)[C@H](n4cnc5c(N)ncnc54)O[C@@H]3COP(=O)(O)O[C@H]2[C@H]1O [cA6],Kd,Csm6-2 (ApCsm6-2),3.72 nM
